Assay [1] relates to AMPK. In words: AMPK activation in HL-60 cells, Western blot. The format is cell-based, human. Particulars: 1 hour. Here is the method: Activation of AMPK was associated with the phosphorylation of the α-subunit on Thr-172 of as assessed using phospho-specific antibodies (FIGS. 10A-B). AMPK activation also leads to the increased phosphorylation of the target protein acetyl-CoA carboxylase (ACC) (FIG. 10B).
Cells of each cell lines (Hela, HL-60, and 3T3-L1) were treated for 1 hour with a test compound (COH-SR4, COH-SR9, COH-SR16, or COH-SR18) at a concentration of 1 μM, 3 μM, or 5 μM, or AICAR (5-aminoimidazole-4-carboxamideriboside, an AMPK agonist used as positive control) at a concentration of 500 μM, or none of the above (the untreated cells as negative control). Total cell lysates from the untreated cells and the cells treated with a test compound or AICAR were analyzed by Western blot assay using specific antibodies against phospho-AMPK, phospho-ACC, total AMPK and total ACC.
For orientation: A western blot detects proteins with antibodies after separation by electrophoresis.

The subject of assay [2] is A2058, A101D and SK-Mel-28 melanoma cells. The experiment in a line: Mitochondrial ROS, MitoSox Red. The format is cell-based, human. Particulars: 5 μM, 1 h. The protocol: Briefly, cells (4×10^5 well) were seeded in a 6-well plate and incubated overnight. Twenty-four hours after plating, cells were treated with test compounds as indicated in each experiment. After washing with pre-warmed PBS, cells were incubated with fresh medium containing 5 μM MitoSox Red for 15 min at 37° C. The fluorescence intensity was measured at of 530ex/590em using flow cytometry (Cyan ADP). The cells only sample (no MitoSox dye added) was used as the background. Approximately 30,000 counts were made for each sample. Experiments were repeated for three times and at least duplicate samples were included in each experiment.
Mitochondrial ROS was measured by MitoSox Red according to the manufacturer's instructions (Molecular Probes, CA). The intensity of fluorescence was quantified by digital analysis of images obtained from confocal microscopy using Image Pro Premiere software (Media Cybernetics Inc., Bethesda, Md.) (A2058, FIG. 74A) or by flow cytometry (FIG. 74B). Cells were treated with either 5 μM of COH-SR4, rotenone (mitochondrial complex 1 inhibitor) or elesclomol for 1 h. *Results represent fold increase of ROS generation over control and are expressed as mean±SD from three independent experiments.

The subject of assay [3] is p38 MAPK, ERK1/2, JNK. In words: MAPK/ERK signaling in melanoma cells, Western blotting. Conditions: 0-10 μM; 5 μM 0-24 h. The format is cell-based. The protocol: Cell or tissue proteins were extracted with cell lysis buffer (Cell Signaling Technology) and protein concentration was determined using the DC Protein Assay kit (Bio-Rad, Hercules, Calif., USA). Equal amount of proteins (˜40 μg) were loaded onto 4-15% Criterion TGX gels (Bio-Rad, Hercules, Calif.), resolved by SDS-PAGE electrophoresis, and then transferred onto nitrocellulose membranes for immunoblotting. Membranes were blocked with 5% skimmed milk in Tris-buffered saline containing 0.05% Tween 20 before incubation overnight at 4° C. with desired primary antibodies. Immuno-reactive proteins were visualized by peroxidase-labeled secondary antibodies and ECL system (Western Lightning Chemiluminescence Reagent, Perkin-Elmer, Mass., USA). […] Band intensities were quantified using a densitometer (Quantity One, Bio-Rad, Hercules, Calif.).
To investigate whether COH-SR4 affected the MAPK/ERK signaling pathway in human melanoma, the phosphorylation levels of p38 MAPK (T^180/Y^182), ERK1/2 (T^202/Y^204), and pJNK (T^183/Y^185), in A101D, A2058, SK-Mel-5, SK-MEL-28 and B16-F0 melanoma cells were examined after COH-SR4 treatment at various doses (0-10 μM) (FIG. 76A) or at a dose of 5 μM at various time points (0-24 h) (FIG. 76B). Total proteins were isolated and analyzed by Western blotting.

Assay [4] has as its system H-358 and H-520 cells. The experiment in a line: Cell cycle FACS analysis, lung cancer. The format is cell-based, human. The protocol:
2×10^5 cells were treated with COH-SR4 (0 μM, 5 μM or 10 μM) for 18 h at 37° C. After treatment, floating and adherent cells were collected, washed with PBS, and fixed with 70% ethanol. On the day of flow analysis, cell suspensions were centrifuged; counted and same numbers of cells were resuspended in 500 μL PBS in flow cytometry tubes. Cells were then incubated with 2.5 μL of RNase (stock 20 mg/mL) at 37° C. for 30 min after which they were treated with 10 μL of propidium iodide (stock 1 mg/mL) solution and then incubated at room temperature for 30 min in the dark. The stained cells were analyzed using the Beckman Coulter Cytomics FC500, Flow Cytometry Analyzer. Results were processed using CXP2.2 analysis software from Beckman Coulter.
In the context of the elevation of GSTs in lung cancer, the impact of COH-SR4 on the catalytic activity of GSTs towards 1-chloro 2,4-dinitro benzene (CDNB), a model substrate used for GST activity was analyzed. GST activity towards 1-chloro 2,4-dinitro benzene (CDNB) and its inhibition by COH-SR4 was performed in 28000×g crude supernatant prepared from H1417, H1618, H520 and H358 cells. The inhibitory effect of COH-SR4 on GST was studied at a fixed concentration of GSH and CDNB (1 mM each) and varying concentrations of inhibitor. The enzymes were pre-incubated with the inhibitor for 5 min at 37° C. prior to the addition of the substrates. […]
For orientation: A flow cytometer gives signals particle by particle.

As to `O=C(Nc1cc(Cl)cc(Cl)c1)Nc1cc(Cl)cc(Cl)c1` [COH-SR4, 1,3-bis(3,5-dichlorophenyl) urea], in assay [1], the AMPK activation entry was “activated AMPK”. Besides, in assay [2], the “mitochondrial ROS production (MitoSox Red)” value is recorded as “induced ROS production”. Besides, in assay [3], the “phosphorylation of p38 MAPK and ERK1/2” value is “dose- and time dependent increase in the levels of phosphorylation of p38 MAPK (T^180/Y^182) and ERK1/2 (T^202/Y^204)”. Also, the cell cycle arrest result in assay [4] was “induced G0/G1 phase arrest in a concentration dependent manner”.

The record behind these values is patent publication US9808434B2, “Compound for treating cancer and diabetes” (CITY OF HOPE, priority 2011, dated 2017).
